Data as given in patent US10925885B2, “Thyromimetics for the treatment of fatty liver diseases” (Metabasis Therapeutics, Inc., priority 2005, dated 2021).
“Also recorded” adds a separate entry of the source.

Columns and labels:
[1] = test system: liver triglycerides; assay: Liver triglycerides, chronic exposure in ob/ob mice; assay type: in vivo; conditions: for Liver Trigs: CMC suspension
Procedure: Sections of liver were removed and frozen. Liver triglycerides were analyzed following lipid extraction by the Bligh Dyer method (Bligh and Dyer, Can. J. Med. Sci. 37(8):911-7 (1959), incorporated herein by reference). Total triglycerides were analyzed in the liver extracts by an enzymatic assay (Thermo Electron Corporation). Total lipid was normalized to initial liver weight and triglyceride content was normalized to liver weight mGPDH activity was analyzed in isolated mitochondria using 2-(4-iodophenyl)-3-(4-nitrophenyl)-5-phenyl tetrazolium chloride as the terminal electron acceptor (Gardner R S, Analytical Biochemistry 59:272 (1974)). Commercially available GPDH was used in each assay as a standard (Sigma, St. Louis, Mo.).
The purpose of these studies was to compare the difference in efficacy to clear liver triglyceride content between Compound cis-13-1 and T3 in ob/ob mice.
(§1) Methods: ob/ob mice were maintained on a standard diet. Compound cis-13-1 was administered at doses of 3, 10 and 30 mg/kg/d orally in a CMC suspension. T3, 100 nmole/kg/d, was administered as an aqueous solution subcutaneously. Liver triglycerides were analyzed as described in example A. Epididymal fat pads were removed and weighed. Clinical chemistry analysis was performed by LabCorp (San Diego, Calif.).

[2] = Epididymal fat pad weight in ob/ob mice; assay type: in vivo; conditions: for EFP weight: CMC suspension
Procedure: as §1

[3] = test system: ALT; assay: ALT levels (clinical chemistry) in ob/ob mice; assay type: in vivo; conditions: 9 weeks of treatment, from 634 IU/L in the vehicle treated group
Procedure: as §1

[4] = test system: hepatic steatosis; assay: Hepatic steatosis measured chemically and histologically in ob/ob mice; assay type: in vivo; conditions: oral administration of cis-13-1
Procedure: as §1

[5] = test system: hepatic steatosis; assay: Liver steatosis (H&E sections) in ZDF rats; assay type: in vivo, Zucker diabetic fatty (ZDF) rats; conditions: oral, CMC suspension
Procedure: (§2) Methods: ZDF rats were maintained on a standard diet (5008). Compounds cis-13-1 or 18 were administered orally at the indicated doses using a CMC suspension. Liver steatosis was analyzed visually following H&E staining of paraffin embedded liver sections. TSH was measured using a rodent specific kit (Amersham Biosciences). At the end of the experiment, the left ventricle was cannulated with a high fidelity catheter-tip transducer (Millar) via the right carotid artery. Left ventricle pressure, its first derivative (LV dP/dt), lead I ECG, and heart rate triggered off the ECG waveform, were recorded.

[6] = test system: TSH; assay: TSH in ZDF rats; assay type: in vivo, Zucker diabetic fatty (ZDF) rats; conditions: 4 weeks of treatment
Procedure: as §2

[7] = Heart rate and cardiovascular parameters in ZDF rats; assay type: in vivo, Zucker diabetic fatty (ZDF) rats; conditions: end of experiment
Procedure: as §2

[8] = test system: hepatic steatosis; assay: Liver steatosis (H&E sections) in DIO mice; assay type: in vivo, diet induced obesity (DIO) mice; conditions: DIO mice (60% Kcal from fat diet); 30 mg/kg/d orally, CMC suspension, 10 weeks
Procedure: (§3) The purpose of these studies was to compare the ability of Compound cis-13-1 to clear liver steatosis in diet induced obesity (DIO) mice. Methods: […] mice were maintained on a 60% Kcal from fat diet. Compound cis-13-1 was administered at doses of 30 mg/kg/d orally in a CMC suspension for 10 weeks. Liver steatosis was analyzed visually following H&E staining of paraffin embedded liver sections. TSH was measured using a rodent specific kit (Amersham Biosciences). Heart rates were measured using a Lead I ECG with the heart rate calculated from the ECG waveform.

[9] = test system: mitochondria; assay: Ultrastructure of mitochondria in DIO mice; assay type: in vivo, diet induced obesity (DIO) mice; conditions: 30 mg/kg/d orally, 10 weeks
Procedure: as §3, with “Methods:” for “The purpose of these studies was to compare the ability of Compound cis-13-1 to clear liver steatosis in diet induced obesity (DIO) mice. Methods:”

[10] = test system: TSH; assay: TSH in DIO mice; assay type: in vivo, diet induced obesity (DIO) mice; conditions: 10 weeks of treatment
Procedure: as §3, with “Methods:” for “The purpose of these studies was to compare the ability of Compound cis-13-1 to clear liver steatosis in diet induced obesity (DIO) mice. Methods:”

[11] = Heart rate (Lead I ECG) in DIO mice; assay type: in vivo, diet induced obesity (DIO) mice; conditions: 30 mg/kg/d orally, 10 weeks
Procedure: as §3, with “Methods:” for “The purpose of these studies was to compare the ability of Compound cis-13-1 to clear liver steatosis in diet induced obesity (DIO) mice. Methods:”

[12] = test system: CPT-1; assay: Liver gene expression (real-time PCR) in normal mice; assay type: in vivo; conditions: normal C57Bl6 mice; 30 mg/kg/d orally, CMC suspension, 1 week; liver mRNA
Procedure: The purpose of these studies was to compare the ability of Compound cis-13-1 to change liver gene expression.
Methods: C57Bl6 mice were maintained on a normal rodent diet. Compound cis-13-1 was administered at doses of 30 mg/kg/d orally in a CMC suspension for 1 week. Changes in levels of mRNA for liver and heart genes are analyzed using reverse transcriptase followed by real-time PCR analysis. The analysis is performed using an iCycler instrument (Biorad) and appropriate primers by means of standard methodology (e.g., Schwab D A et al. Life Sciences 66:1683-94(2000)). The amounts of mRNA are normalized to an internal control, typically, cyclophilin.

- EFP weight ([2]; 3 mg/kg/d orally): 4.4 ± 0.1 g
- EFP weight ([2]; 10 mg/kg/d orally): 4.7 ± 0.1 g
- EFP weight ([2]; 30 mg/kg/d orally): 4.4 ± 0.1 g
- Effect on TSH, in words [6]: No significant decreases in TSH
- Effect on TSH, in words [10]: No significant decreases in TSH
Structure (SMILES): Cc1cc(OC[P@@]2(=O)OCC[C@@H](c3cccc(Cl)c3)O2)cc(C)c1Cc1ccc(O)c(C(C)C)c1 [Compound cis-13-1]
- Liver Trigs ([1]; 3 mg/kg/d orally): 87 ± 6 mg/g
- Liver Trigs ([1]; 10 mg/kg/d orally): 66 ± 10 mg/g
- Liver Trigs ([1]; 30 mg/kg/d orally): 59 ± 6 mg/g
- Effect on liver (hepatic) triglyceride content, in words ([1]; cis-13-1 oral 3, 10, 30 mg/kg/d, T3 100 nmole/kg/d s.c.): decreased hepatic triglyceride content at 10 and 30 mg/kg/d
- Effect on epididymal fat pad (EFP) weight, in words ([2]; cis-13-1 oral, T3 100 nmole/kg/d s.c.): did not decrease epididymal fat pad (EFP) weight; also recorded: no effect on epididymal fat pad weight
- Decrease in ALT levels [3]: > 50%
- Effect on hepatic steatosis measured chemically and histologically, in words [4]: decreased hepatic steatosis
- Effect on hepatic steatosis (visual, H&E), in words [5]: visually decreased hepatic steatosis compared to control
- Heart rates and other cardiovascular parameters, change from vehicle, in words [7]: no significant changes from vehicle in any parameter
- Effect on hepatic steatosis (visual, H&E), in words [8]: decreased hepatic steatosis
- Ultrastructure of mitochondria, in words [9]: no abnormalities in the ultrastructure of mitochondria
- Change in heart rate, in words [11]: no significant change in heart rate
- Increase in CPT-1 expression [12]: 3.5 fold
